The values that follow come from patent EP4810052A2, “HCRHR2 SELECTIVE POLYPEPTIDES” (Gubra A/S, priority 2023, dated 2026).

Where two headings read alike, the source gives them in different places. Starred links: 1 amine or outer side, 2 acyl side, 3 side chain; linkers in the order of their positions; H or OH if unused. Non-standard residues stand in square brackets, D forms with d. Residues, ends and D or L forms follow the SMILES beside them. Groups on a side chain read outwards from the residue. *: point of attachment. C20 diacid = O=C(O)CCCCCCCCCCCCCCCCCCC(=O)*; Pro(4S-NH2) = N[C@@H]1CN[C@H](C(=O)O)C1; γGlu = O=C(O)[C@H](CCC(=O)[*:2])N[*:1]; NMeI = CC[C@H](C)[C@H](NC)C(=O)O; Nle = CCCC[C@H](N)C(=O)O; AEEA = NCCOCCOCC(=O)O; Aib = CC(C)(N)C(=O)O

Test [1] has as its target T1, hCRHR1 (Homo sapiens, UniProt P34998).
T1 sequence (P34998 24-415): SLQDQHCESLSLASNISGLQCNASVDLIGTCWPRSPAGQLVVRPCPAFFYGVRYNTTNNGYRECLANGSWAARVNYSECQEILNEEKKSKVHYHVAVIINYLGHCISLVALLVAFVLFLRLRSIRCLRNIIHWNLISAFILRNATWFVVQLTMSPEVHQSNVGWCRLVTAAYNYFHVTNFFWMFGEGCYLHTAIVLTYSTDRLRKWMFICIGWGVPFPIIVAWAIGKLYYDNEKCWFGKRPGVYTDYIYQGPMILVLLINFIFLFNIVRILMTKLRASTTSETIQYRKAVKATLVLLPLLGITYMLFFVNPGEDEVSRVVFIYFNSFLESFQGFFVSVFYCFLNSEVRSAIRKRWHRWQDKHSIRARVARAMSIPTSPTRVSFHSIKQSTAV
The test can be described thus: HTRF cAMP assay, determination of hCRHR1 potency (peptide libraries 5 conc., purified peptides 11 conc.). Format: cell-based. From the text: HTRF (CisBio) cAMP assay: The assay technology has thoroughly been described in the CisBio HTRF cAMP assay Kit manual (# 62AM4PEC). Briefly, time resolved fluorescence technic was applied to measure cAMP. This technic is based on a competitive immunoassay using cryptate-labelled anti-cAMP antibody and d2-labeled cAMP. In the absence of cellular cAMP, the anti-cAMP cryptate conjugate may get into proximity to cAMP-d2 conjugate and energy (FRET) can be transferred from cryptate to d2. CHO-K1 cells stably expressing the human corticotropin-releasing hormone receptor 1 (Eurofins/DiscoverX Cat #95-0047C2 hCRHR1 stable monoclonal cell lines) were used as cells in suspension, brought to life from frozen cell stocks immediately before assay performance. […] Concentration-response evaluation of compounds was performed with 5 concentrations of agonist peptides and EC50 values were calculated by nonlinear regression using sigmoid concentration-response with variable slope. Concentration-response evaluation of compounds was performed with 11 concentrations of agonist peptides and EC50 values were calculated by nonlinear regression using sigmoid concentration-response with variable slope.

Test [2] addresses T2, hCRHR2 (Homo sapiens, UniProt Q13324).
T2 sequence (Q13324 1-411): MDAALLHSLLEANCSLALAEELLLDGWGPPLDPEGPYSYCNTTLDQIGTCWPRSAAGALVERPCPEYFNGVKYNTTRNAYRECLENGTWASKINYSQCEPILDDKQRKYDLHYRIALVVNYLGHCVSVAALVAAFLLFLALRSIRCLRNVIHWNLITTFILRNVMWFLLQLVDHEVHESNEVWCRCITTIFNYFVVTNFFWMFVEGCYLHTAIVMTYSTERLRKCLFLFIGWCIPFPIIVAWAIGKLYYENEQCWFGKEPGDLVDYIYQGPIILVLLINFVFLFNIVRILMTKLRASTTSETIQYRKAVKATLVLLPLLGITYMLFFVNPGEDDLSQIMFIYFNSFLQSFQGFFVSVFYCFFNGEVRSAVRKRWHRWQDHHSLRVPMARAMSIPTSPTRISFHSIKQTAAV
Nature of the test: HTRF cAMP assay, determination of hCRHR2 potency (peptide libraries 5 conc., purified peptides 11 conc.). It is filed as cell-based. The source says:
HTRF (CisBio) cAMP assay: The assay technology has thoroughly been described in the CisBio HTRF cAMP assay Kit manual (# 62AM4PEC). Briefly, time resolved fluorescence technic was applied to measure cAMP. This technic is based on a competitive immunoassay using cryptate-labelled anti-cAMP antibody and d2-labeled cAMP. In the absence of cellular cAMP, the anti-cAMP cryptate conjugate may get into proximity to cAMP-d2 conjugate and energy (FRET) can be transferred from cryptate to d2.
CHO-K1 cells stably expressing the human corticotropin-releasing hormone receptor 2 (Eurofins/DiscoverX, Cat #95-0048C2 hCRHR2 stable monoclonal cell lines) were used as cells in suspension, brought to life from frozen cell stocks immediately before assay performance.
Concentration-response evaluation of compounds was performed with 5 concentrations of agonist peptides and EC50 values were calculated by nonlinear regression using sigmoid concentration-response with variable slope.
Concentration-response evaluation of compounds was performed with 11 concentrations of agonist peptides and EC50 values were calculated by nonlinear regression using sigmoid concentration-response with variable slope.

[3] abbreviates: library peptides, matched molecular pairs L vs Nle in position X^38, read-out: Potency hCRHR1 pEC50 (converted).
Where [4] appears, read: library peptides, matched molecular pairs L vs Nle in position X^38, read-out: Potency hCRHR2 pEC50 (converted).

For `CCCC[C@H](NC(=O)[C@@H](NC(=O)[C@H](CCC(=O)O)NC(=O)[C@H](C)NC(=O)[C@H](CC(N)=O)NC(=O)[C@@H](NC(=O)[C@H](CCCCNC(=O)COCCOCCNC(=O)COCCOCCNC(=O)CC[C@H](NC(=O)CC[C@H](NC(=O)CCCCCCCCCCCCCCCCCCC(=O)O)C(=O)O)C(=O)O)NC(=O)[C@H](C)NC(=O)[C@H](CCC(=O)O)NC(=O)[C@H](CCC(=O)O)NC(=O)[C@H](CCCNC(=N)N)NC(=O)[C@H](CC(C)C)NC(=O)[C@H](C)NC(=O)[C@H](CCCNC(=N)N)NC(=O)[C@H](C)NC(=O)[C@H](CCCNC(=N)N)NC(=O)[C@H](C)NC(=O)[C@H](CCC(N)=O)NC(=O)[C@H](CCC(=O)O)NC(=O)[C@H](CC(C)C)NC(=O)[C@H](CC(C)C)NC(=O)[C@@H](NC(=O)[C@H](CCC(N)=O)NC(=O)[C@H](CC(C)C)NC(=O)[C@H](CC(C)C)NC(=O)CNC(=O)[C@@H](NC(=O)[C@@H]1CCCN1C(=O)[C@@H](NC(=O)[C@H](CC(=O)O)NC(=O)[C@H](CC(C)C)NC(=O)[C@H](CO)NC(=O)[C@H](CC(C)C)NC(=O)[C@@H](NC(=O)[C@@H](N)[C@@H](C)CC)C(C)C)C(C)C)[C@@H](C)CC)[C@@H](C)CC)[C@@H](C)O)[C@@H](C)CC)C(=O)N[C@@H](C)C(=O)N[C@@H](CCC(=O)O)C(=O)N[C@H](C(N)=O)C(C)C` [compound 51] (H-IVLSLDVPIGLLQILLEQARARALREEAK([AEEA-AEEA-γGlu-γGlu-C20 diacid])TNAEI[Nle]AEV-NH2), the EC50 was 126000 nM in test [1] (setting [3]) and 0.794 nM in test [2] (setting [4]).

Regarding `CCCC[C@H](NC(=O)[C@@H](NC(=O)[C@H](CCC(=O)O)NC(=O)C(C)(C)NC(=O)[C@H](CC(N)=O)NC(=O)[C@@H](NC(=O)[C@H](CCCCNC(=O)COCCOCCNC(=O)COCCOCCNC(=O)CC[C@H](NC(=O)CC[C@H](NC(=O)CCCCCCCCCCCCCCCCCCC(=O)O)C(=O)O)C(=O)O)NC(=O)[C@H](C)NC(=O)[C@H](CCC(N)=O)NC(=O)[C@H](CCC(=O)O)NC(=O)[C@H](CCCNC(=N)N)NC(=O)[C@H](C)NC(=O)[C@H](C)NC(=O)[C@H](CCCNC(=N)N)NC(=O)[C@H](C)NC(=O)[C@H](CCCNC(=N)N)NC(=O)[C@H](C)NC(=O)[C@H](CCC(N)=O)NC(=O)[C@H](CCC(=O)O)NC(=O)[C@H](CC(C)C)NC(=O)[C@H](CC(C)C)NC(=O)[C@@H](NC(=O)[C@H](CCC(N)=O)NC(=O)[C@H](CC(C)C)NC(=O)[C@H](CC(C)C)NC(=O)CNC(=O)[C@@H](NC(=O)[C@@H]1CCCN1C(=O)[C@@H](NC(=O)[C@H](CC(=O)O)NC(=O)[C@H](CC(C)C)NC(=O)[C@H](CO)NC(=O)[C@H](CC(C)C)NC(=O)[C@@H](NC(=O)[C@@H](NC)[C@@H](C)CC)C(C)C)C(C)C)[C@@H](C)CC)[C@@H](C)CC)[C@@H](C)O)[C@@H](C)CC)C(=O)N[C@@H](C)C(=O)N[C@@H](CCC(=O)O)C(=O)N[C@H](C(N)=O)C(C)C` [compound 205] (H-[NMeI]VLSLDVPIGLLQILLEQARARAAREQAK([AEEA-AEEA-γGlu-γGlu-C20 diacid])TN[Aib]EI[Nle]AEV-NH2), the EC50 in test [1] (Table 4, library peptides having X^38 = Nle, read-out: hCRHR1 pEC50 (converted)) was 1260 nM; in test [2] (Table 4, library peptides having X^38 = Nle, read-out: hCRHR2 pEC50 (converted)) it was 0.0631 nM. Also, the “Selectivity hCRHR1 EC50/hCRHR2 EC50” value in test [2] (Table 4, ratio, or comparison with Ref. 1 (SEQ ID NO: 205) / Ref. 2 (SEQ ID NO: 124)) turned out to be 20689.

On to `CC[C@H](C)[C@H](N)C(=O)N[C@H](C(=O)N[C@@H](CC(C)C)C(=O)N[C@@H](CO)C(=O)N[C@@H](CC(C)C)C(=O)N[C@@H](CC(=O)O)C(=O)N[C@H](C(=O)N1C[C@@H](N)C[C@H]1C(=O)N[C@H](C(=O)NCC(=O)N[C@@H](CC(C)C)C(=O)N[C@@H](CC(C)C)C(=O)N[C@@H](CCC(N)=O)C(=O)N[C@H](C(=O)N[C@@H](CC(C)C)C(=O)N[C@@H](CC(C)C)C(=O)N[C@@H](CCC(=O)O)C(=O)N[C@@H](CCC(N)=O)C(=O)N[C@@H](C)C(=O)N[C@@H](CCCNC(=N)N)C(=O)N[C@@H](C)C(=O)N[C@@H](CCCNC(=N)N)C(=O)N[C@H](C(=O)N[C@@H](C)C(=O)N[C@@H](CCCNC(=N)N)C(=O)N[C@@H](CCC(=O)O)C(=O)N[C@@H](CCC(N)=O)C(=O)N[C@@H](C)C(=O)N[C@@H](CCCCNC(=O)COCCOCCNC(=O)COCCOCCNC(=O)CC[C@H](NC(=O)CC[C@H](NC(=O)CCCCCCCCCCCCCCCCCCC(=O)O)C(=O)O)C(=O)O)C(=O)N[C@H](C(=O)N[C@@H](CC(N)=O)C(=O)N[C@@H](C)C(=O)N[C@@H](CCC(=O)O)C(=O)N[C@H](C(=O)N[C@@H](CC(C)C)C(=O)N[C@@H](C)C(=O)N[C@@H](CCC(=O)O)C(=O)N[C@H](C(N)=O)C(C)C)[C@@H](C)CC)[C@@H](C)O)C(C)C)[C@@H](C)CC)[C@@H](C)CC)C(C)C)C(C)C` [compound 76] (H-IVLSLDV[Pro(4S-NH2)]IGLLQILLEQARARVAREQAK([AEEA-AEEA-γGlu-γGlu-C20 diacid])TNAEILAEV-NH2), for which the EC50 in test [1] (setting [3]) and in test [2] (setting [4]) was 1.58 nM in each case.

As for `CCCC[C@H](NC(=O)[C@@H](NC(=O)[C@H](CCC(=O)O)NC(=O)[C@H](C)NC(=O)[C@H](CC(N)=O)NC(=O)[C@@H](NC(=O)[C@H](CCCCNC(=O)COCCOCCNC(=O)COCCOCCNC(=O)CC[C@H](NC(=O)CC[C@H](NC(=O)CCCCCCCCCCCCCCCCCCC(=O)O)C(=O)O)C(=O)O)NC(=O)[C@H](C)NC(=O)[C@H](CCC(N)=O)NC(=O)[C@H](CCC(=O)O)NC(=O)[C@H](CCCNC(=N)N)NC(=O)[C@H](CCC(N)=O)NC(=O)[C@H](C)NC(=O)[C@H](CCCNC(=N)N)NC(=O)[C@H](C)NC(=O)[C@H](CCCNC(=N)N)NC(=O)[C@H](C)NC(=O)[C@H](CCC(N)=O)NC(=O)[C@H](CCC(=O)O)NC(=O)[C@H](CC(C)C)NC(=O)[C@H](CC(C)C)NC(=O)[C@@H](NC(=O)[C@H](CCC(N)=O)NC(=O)[C@H](CC(C)C)NC(=O)[C@H](CC(C)C)NC(=O)CNC(=O)[C@@H](NC(=O)[C@@H]1CCCN1C(=O)[C@@H](NC(=O)[C@H](CC(=O)O)NC(=O)[C@H](CC(C)C)NC(=O)[C@H](CO)NC(=O)[C@H](CC(C)C)NC(=O)[C@@H](NC(=O)[C@@H](N)[C@@H](C)CC)C(C)C)C(C)C)[C@@H](C)CC)[C@@H](C)CC)[C@@H](C)O)[C@@H](C)CC)C(=O)N[C@@H](C)C(=O)N[C@@H](CCC(=O)O)C(=O)N[C@H](C(N)=O)C(C)C` [compound 57] (H-IVLSLDVPIGLLQILLEQARARAQREQAK([AEEA-AEEA-γGlu-γGlu-C20 diacid])TNAEI[Nle]AEV-NH2), the EC50 in test [1] (setting [3]) is 63.1 nM; in test [2] (setting [4]), 0.126 nM.
